Experimental data from US11464770B2, “Anticancer pharmaceutical composition” (NATIONAL CANCER CENTER, priority 2016, dated 2022).
Read-outs that look alike come from different tables or passages of the source.

Key:
[1] = tested on: pancreatic cancer cell lines (e.g. MIA PaCa-2); assay: Cell based assay, cell viability (CellTiter-Glo), pancreatic cancer cell lines; conditions: Homo sapiens
In short: (§1)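 Trypsin-EDTA-detached lines seeded; 24 h later compound added (final 0–2 μM); 72 h exposure; ATP luminescence viability readout.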

[2] = tested on: blood cancer cell lines (e.g. HL-60, Jurkat, Raji, Ramos, Daudi, MOLT-4); assay: Cell based assay, cell viability (CellTiter-Glo), blood cancer cell lines; conditions: Homo sapiens
In short: as §1

renal cancer cell lines = assay: Cell based assay, cell viability (CellTiter-Glo), renal cancer cell lines; conditions: Homo sapiens; ACHN cells
In short: as §1

neuroblastoma cell lines = assay: Cell based assay, cell viability (CellTiter-Glo), neuroblastoma cell lines; conditions: Homo sapiens; SH-SY5Y cell line
In short: as §1

[3] = pancreatic cancer cell line AsPC-1, 72 hours, read-out: IC50, AsPC-1
[4] = pancreatic cancer cell line BxPC-3, 72 hours, read-out: IC50, BxPC-3
[5] = pancreatic cancer cell line CFPAC-1, 72 hours, read-out: IC50, CFPAC-1
[6] = pancreatic cancer cell line Capan-1, 72 hours, read-out: IC50, Capan-1
[7] = pancreatic cancer cell line Capan-2, 72 hours, read-out: IC50, Capan-2
[8] = pancreatic cancer cell line MIA PaCa-2, 72 hours, read-out: IC50, MIA PaCa-2
[9] = pancreatic cancer cell line PANC-1, 72 hours, read-out: IC50, PANC-1
[10] = MV4-11, blood cancer cell line MV-4-11, 72 hours, read-out: IC50, MV-4-11
[11] = blood cancer cell line Daudi, 72 hours, read-out: IC50, Daudi
[12] = blood cancer cell line HL-60, 72 hours, read-out: IC50, HL-60
[13] = blood cancer cell line Jurkat, 72 hours, read-out: IC50, Jurkat
[14] = blood cancer cell line MOLT-4, 72 hours, read-out: IC50, MOLT-4
[15] = blood cancer cell line Raji, 72 hours, read-out: IC50, Raji
[16] = blood cancer cell line Ramos (RA 1), 72 hours, read-out: IC50, Ramos (RA 1)
[17] = blood cancer cell line U-937, 72 hours, read-out: IC50, U-937

| SMILES | IC50 [1, 3] | IC50 [1, 4] | IC50 [1, 5] | IC50 [1, 6] | IC50 [1, 7] | IC50 [1, 8] | IC50 [1, 9] | IC50 [2, 10] | IC50 [2, 11] | IC50 [2, 12] | IC50 [2, 13] | IC50 [2, 14] | IC50 [2, 15] | IC50 [2, 16] | IC50 [2, 17] | IC50 (renal cancer cell lines) | IC50 (neuroblastoma cell lines) |
| --- | --- | --- | --- | --- | --- | --- | --- | --- | --- | --- | --- | --- | --- | --- | --- | --- | --- |
| CC(=O)c1c(SCc2cc(Cl)ccc2Cl)[nH]c2c(Br)ccc(Cl)c2c1=O [Compound 43, 3-acetyl-8-bromo-5-chloro-2-((2,5-dichlorobenzyl)thio)quinolin-4(1H)-one] | > 2 µM | > 2 µM | > 10 µM | > 2 µM | > 2 µM | > 2 µM | > 2 µM | > 2 µM | > 2 µM | > 2 µM | > 2 µM | > 2 µM | > 2 µM | > 2 µM | > 2 µM | > 2 µM | > 2 µM |
| CC(=O)c1c([S+]([O-])Cc2ccc(S(F)(F)(F)(F)F)cc2F)[nH]c2c(Br)ccc(Cl)c2c1=O (stereo not drawn) [Compound 69, 3-acetyl-8-bromo-5-chloro-2-((2-fluoro-4-(pentafluoro-16-sulfanyl)benzyl)sulfinyl)quinolin-4(1H)-one] | > 2 µM | > 2 µM | > 10 µM | > 2 µM | > 2 µM | 1.37 µM | > 2 µM | 1.47 µM | 1.43 µM | 1.88 µM | 1.13 µM | 1.3 µM | 1.11 µM | 1.87 µM | > 2 µM | > 2 µM | > 2 µM |
| CC(=O)c1c([S+](C)[O-])[nH]c2c(Br)ccc(Cl)c2c1=O (stereo not drawn) [Compound 1, 3-acetyl-8-bromo-5-chloro-2-(methylsulfinyl)quinolin-4(1H)-one] | > 2 µM | > 2 µM | > 10 µM | > 2 µM | > 2 µM | 1.59 µM | > 2 µM | 1.39 µM | > 2 µM | 1.72 µM | > 2 µM | 1.85 µM | > 2 µM | > 2 µM | > 2 µM | > 2 µM | > 2 µM |
| CC(=O)c1c([S+]([O-])c2ccccc2)[nH]c2c(Br)ccc(Cl)c2c1=O (stereo not drawn) [Compound 13, 3-acetyl-8-bromo-5-chloro-2-(phenylsulfinyl)quinolin-4(1H)-one] | > 2 µM | > 2 µM | > 10 µM | > 2 µM | > 2 µM | > 2 µM | > 2 µM | > 2 µM | > 2 µM | > 2 µM | > 2 µM | > 2 µM | > 2 µM | > 2 µM | > 2 µM | > 2 µM | > 2 µM |
| CC(=O)c1c(SCc2ccc(F)c(Cl)c2)[nH]c2c(Br)ccc(Cl)c2c1=O [Compound 30, 3-acetyl-8-bromo-5-chloro-2-((3-chloro-4-fluorobenzyl)thio)quinolin-4(1H)-one] | > 2 µM | > 2 µM | > 10 µM | > 2 µM | > 2 µM | > 2 µM | > 2 µM | > 2 µM | > 2 µM | > 2 µM | > 2 µM | > 2 µM | > 2 µM | > 2 µM | > 2 µM | > 2 µM | > 2 µM |
| CSc1c(C(C)=O)c(=O)c2c(Cl)ccc(Br)c2n1C [Compound 5, 3-acetyl-8-bromo-5-chloro-1-methyl-2-(methylthio)quinolin-4(1H)-one] | > 2 µM | > 2 µM | > 10 µM | > 2 µM | > 2 µM | > 2 µM | > 2 µM | > 2 µM | > 2 µM | > 2 µM | > 2 µM | > 2 µM | > 2 µM | > 2 µM | > 2 µM | > 2 µM | > 2 µM |
| CSc1c(C(C)=O)c(=O)c2c(Cl)ccc(Br)c2n1C(C)=O [Compound 18, 1,1′-(8-bromo-5-chloro-2-(methylthio)-4-oxoquinoline-1,3(4H)-diyl)bis(ethan-1-one)] | > 2 µM | > 2 µM | > 10 µM | > 2 µM | > 2 µM | > 2 µM | > 2 µM | > 2 µM | > 2 µM | > 2 µM | > 2 µM | > 2 µM | > 2 µM | > 2 µM | > 2 µM | > 2 µM | > 2 µM |
| CC(=O)c1c([S+]([O-])Cc2ccccc2C#N)[nH]c2c(Br)ccc(Cl)c2c1=O (stereo not drawn) [Compound 58, 2-(((3-acetyl-8-bromo-5-chloro-4-oxo-1,4-dihydroquinolin-2-yl)sulfinyl)methyl)benzonitrile] | > 2 µM | > 2 µM | > 10 µM | > 2 µM | > 2 µM | 0.81 µM | > 2 µM | 0.97 µM | 1.98 µM | 0.87 µM | 0.99 µM | 1.24 µM | 0.94 µM | 1.25 µM | 0.73 µM | > 2 µM | > 2 µM |
| CC(=O)c1c(S(C)(=O)=O)n(C(=O)c2ccc(Br)cc2)c2c(Br)ccc(Cl)c2c1=O [Compound 21, 3-acetyl-8-bromo-1-(4-bromobenzoyl)-5-chloro-2-(methylsulfonyl)quinolin-4(1H)-one] | > 2 µM | > 2 µM | > 10 µM | > 2 µM | > 2 µM | > 2 µM | > 2 µM | > 2 µM | > 2 µM | > 2 µM | > 2 µM | > 2 µM | > 2 µM | > 2 µM | > 2 µM | > 2 µM | > 2 µM |
| CC(=O)c1c(SCc2ccccc2)[nH]c2c(Br)ccc(Cl)c2c1=O [Compound 3, 3-acetyl-2-(benzylthio)-8-bromo-5-chloroquinolin-4(1H)-one] | > 2 µM | > 2 µM | > 10 µM | > 2 µM | > 2 µM | > 2 µM | > 2 µM | > 2 µM | > 2 µM | > 2 µM | > 2 µM | > 2 µM | > 2 µM | > 2 µM | > 2 µM | > 2 µM | > 2 µM |
| CC(=O)c1c([S+]([O-])Cc2ccc(S(F)(F)(F)(F)F)cc2)[nH]c2c(Br)ccc(Cl)c2c1=O (stereo not drawn) [Compound 68, 3-acetyl-8-bromo-5-chloro-2-((4-(pentafluoro-16-sulfanyl)benzyl)sulfinyl)quinolin-4(1H)-one] | > 2 µM | > 2 µM | > 10 µM | > 2 µM | > 2 µM | 1.12 µM | > 2 µM | 1.3 µM | 1.21 µM | 1.71 µM | 1 µM | 1.07 µM | 1.02 µM | 1.66 µM | > 2 µM | > 2 µM | > 2 µM |
| CC(=O)c1c([S+]([O-])Cc2ccc(Cl)nc2)[nH]c2c(Br)ccc(Cl)c2c1=O (stereo not drawn) [Compound 104, 3-acetyl-8-bromo-5-chloro-2-(((6-chloropyridin-3-yl)methyl)sulfinyl)quinolin-4(1H)-one] | > 2 µM | > 2 µM | > 10 µM | 1.59 µM | > 2 µM | 0.79 µM | > 2 µM | 0.95 µM | 1.15 µM | > 2 µM | > 2 µM | 0.93 µM | 1.44 µM | 1.06 µM | > 2 µM | 1.2 µM | 0.6 µM |
| CSc1c(C(C)=O)c(=O)c2c(Cl)ccc(Br)c2n1S(=O)(=O)c1ccc(C(C)(C)C)cc1 [Compound 40, 3-acetyl-8-bromo-1-((4-(tert-butyl)phenyl)sulfonyl)-5-chloro-2-(methylthio)quinolin-4(1H)-one] | > 2 µM | > 2 µM | > 10 µM | > 2 µM | > 2 µM | > 2 µM | > 2 µM | > 2 µM | > 2 µM | > 2 µM | > 2 µM | > 2 µM | > 2 µM | > 2 µM | > 2 µM | > 2 µM | > 2 µM |
| COCSc1[nH]c2c(Br)ccc(Cl)c2c(=O)c1C(C)=O [Compound 61, 3-acetyl-8-bromo-5-chloro-2-((methoxymethyl)thio)quinolin-4(1H)-one] | > 2 µM | > 2 µM | > 10 µM | > 2 µM | > 2 µM | > 2 µM | > 2 µM | > 2 µM | > 2 µM | > 2 µM | > 2 µM | > 2 µM | > 2 µM | > 2 µM | > 2 µM | > 2 µM | > 2 µM |
| CC(=O)c1c([S+](C)[O-])[nH]c2c(Cl)ccc(Cl)c2c1=O (stereo not drawn) [Compound 6, 3-acetyl-5,8-dichloro-2-(methylsulfinyl)quinolin-4(1H)-one] | > 2 µM | > 2 µM | > 10 µM | > 2 µM | > 2 µM | 1.35 µM | > 2 µM | 1.26 µM | > 2 µM | 1.65 µM | > 2 µM | 1.69 µM | > 2 µM | > 2 µM | > 2 µM | > 2 µM | > 2 µM |
| CC(=O)c1c(Sc2ccc(Br)cc2)[nH]c2c(Br)ccc(Cl)c2c1=O [Compound 16, 3-acetyl-8-bromo-2-((4-bromophenyl)thio)-5-chloroquinolin-4(1H)-one] | > 2 µM | > 2 µM | > 10 µM | > 2 µM | > 2 µM | > 2 µM | > 2 µM | > 2 µM | > 2 µM | > 2 µM | > 2 µM | > 2 µM | > 2 µM | > 2 µM | > 2 µM | > 2 µM | > 2 µM |
| CSc1[nH]c2ccc(F)cc2c(=O)c1C(C)=O [Compound 8, 1-(6-fluoro-4-hydroxy-2-(methylthio)quinolin-3-yl)ethan-1-one] | > 2 µM | > 2 µM | > 10 µM | > 2 µM | > 2 µM | > 2 µM | > 2 µM | > 2 µM | > 2 µM | > 2 µM | > 2 µM | > 2 µM | > 2 µM | > 2 µM | > 2 µM | > 2 µM | > 2 µM |
| CC(=O)c1c(SCc2ccc(Cl)cc2)[nH]c2c(Br)ccc(Cl)c2c1=O [Compound 10, 3-acetyl-8-bromo-5-chloro-2-((4-chlorobenzyl)thio)quinolin-4(1H)-one] | > 2 µM | > 2 µM | > 10 µM | > 2 µM | > 2 µM | > 2 µM | > 2 µM | > 2 µM | > 2 µM | > 2 µM | > 2 µM | > 2 µM | > 2 µM | > 2 µM | > 2 µM | > 2 µM | > 2 µM |
